Experimental data as given in US8916570B2 (The United States of America, as represented by the …, priority 2008, dated 2014).
Substitutions are numbered along the chain they refer to. Where two headings read alike, the source gives them in different places. Marks after values point to notes of the source that are not given here.

Assays:
rat A3 AR [1] = target: T1, rat A3 AR (Rattus norvegicus, UniProt P28647); test: Radioligand binding, rat A3 AR (Table 1); settings: species R (rat)
T1 sequence (P28647 1-320): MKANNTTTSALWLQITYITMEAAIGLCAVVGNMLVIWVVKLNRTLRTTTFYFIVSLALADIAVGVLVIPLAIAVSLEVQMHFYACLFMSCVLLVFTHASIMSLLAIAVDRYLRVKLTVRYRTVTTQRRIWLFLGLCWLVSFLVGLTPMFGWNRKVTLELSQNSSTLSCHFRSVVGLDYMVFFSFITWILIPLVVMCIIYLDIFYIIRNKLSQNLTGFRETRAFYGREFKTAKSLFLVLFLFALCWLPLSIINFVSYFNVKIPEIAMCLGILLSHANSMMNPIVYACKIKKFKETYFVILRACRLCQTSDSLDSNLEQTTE

rat A1 AR = target: T2, rat A1 AR (Rattus norvegicus, UniProt P25099); settings: species R (rat); data from Lee et al.; cited from earlier work
T2 sequence (P25099 1-326): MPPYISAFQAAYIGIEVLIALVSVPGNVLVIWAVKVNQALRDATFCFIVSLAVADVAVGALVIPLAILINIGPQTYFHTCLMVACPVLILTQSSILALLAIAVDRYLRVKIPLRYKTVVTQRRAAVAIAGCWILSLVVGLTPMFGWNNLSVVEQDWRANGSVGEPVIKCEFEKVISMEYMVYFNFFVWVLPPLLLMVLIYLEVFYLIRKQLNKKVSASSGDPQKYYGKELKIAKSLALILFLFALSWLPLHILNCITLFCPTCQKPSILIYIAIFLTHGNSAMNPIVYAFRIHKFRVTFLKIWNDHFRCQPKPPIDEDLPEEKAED

rat A2A AR = rat A2A AR (Rattus norvegicus, UniProt P30543); settings: species R (rat); data from Lee et al.; cited from earlier work
rat A2A AR, sequence (P30543 whole entry): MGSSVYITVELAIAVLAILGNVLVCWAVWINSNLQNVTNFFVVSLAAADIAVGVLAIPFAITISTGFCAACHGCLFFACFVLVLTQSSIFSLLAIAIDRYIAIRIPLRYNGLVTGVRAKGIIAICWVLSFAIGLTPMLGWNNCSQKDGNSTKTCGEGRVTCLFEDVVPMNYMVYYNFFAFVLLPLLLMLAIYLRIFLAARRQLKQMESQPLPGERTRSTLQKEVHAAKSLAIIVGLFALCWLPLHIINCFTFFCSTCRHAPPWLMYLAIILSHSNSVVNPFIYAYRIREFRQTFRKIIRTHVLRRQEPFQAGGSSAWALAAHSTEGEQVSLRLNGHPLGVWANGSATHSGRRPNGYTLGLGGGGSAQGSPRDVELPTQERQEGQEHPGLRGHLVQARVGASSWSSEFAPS

hA1AR = target: T3, hA1AR (Homo sapiens, UniProt P30542); settings: values from the literature (footnotes c, d); read-out: Affinity (Ki, nM) hA1; cited from earlier work
T3 construct: expressed in transfected cells; host or cells: CHO
T3 sequence (P30542 1-326): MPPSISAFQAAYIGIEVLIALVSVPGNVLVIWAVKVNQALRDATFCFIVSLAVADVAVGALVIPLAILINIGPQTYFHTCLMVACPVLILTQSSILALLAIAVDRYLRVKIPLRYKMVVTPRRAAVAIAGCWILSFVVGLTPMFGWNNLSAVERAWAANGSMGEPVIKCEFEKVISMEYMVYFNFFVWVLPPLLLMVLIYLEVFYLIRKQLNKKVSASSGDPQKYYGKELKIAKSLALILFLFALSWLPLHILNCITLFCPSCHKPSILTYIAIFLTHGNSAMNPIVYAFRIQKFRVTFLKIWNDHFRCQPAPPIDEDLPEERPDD

hA2AAR = target: T4, hA2AAR (Homo sapiens, UniProt P29274); settings: values from the literature (footnotes c, d); read-out: Affinity (Ki, nM) hA2A; cited from earlier work
T4 construct: expressed in transfected cells
T4 sequence (P29274 whole entry): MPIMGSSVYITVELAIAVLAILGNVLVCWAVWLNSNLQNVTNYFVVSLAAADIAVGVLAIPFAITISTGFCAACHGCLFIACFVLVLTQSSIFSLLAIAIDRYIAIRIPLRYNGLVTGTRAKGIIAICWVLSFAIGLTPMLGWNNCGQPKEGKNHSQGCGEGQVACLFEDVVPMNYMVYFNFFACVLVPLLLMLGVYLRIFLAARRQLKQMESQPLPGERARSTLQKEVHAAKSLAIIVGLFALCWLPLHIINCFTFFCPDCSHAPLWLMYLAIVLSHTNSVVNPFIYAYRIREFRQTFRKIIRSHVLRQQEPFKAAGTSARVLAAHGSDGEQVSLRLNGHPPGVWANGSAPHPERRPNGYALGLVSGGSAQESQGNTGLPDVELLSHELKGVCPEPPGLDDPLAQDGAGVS

hA3AR [2] = target: T5, hA3AR (Homo sapiens, UniProt P0DMS8); settings: at 10 μM vs maximal effect of 51 (= 100%); values from the literature; cited from earlier work
T5 construct: expressed in transfected cells; host or cells: CHO
T5 sequence (P0DMS8 1-318): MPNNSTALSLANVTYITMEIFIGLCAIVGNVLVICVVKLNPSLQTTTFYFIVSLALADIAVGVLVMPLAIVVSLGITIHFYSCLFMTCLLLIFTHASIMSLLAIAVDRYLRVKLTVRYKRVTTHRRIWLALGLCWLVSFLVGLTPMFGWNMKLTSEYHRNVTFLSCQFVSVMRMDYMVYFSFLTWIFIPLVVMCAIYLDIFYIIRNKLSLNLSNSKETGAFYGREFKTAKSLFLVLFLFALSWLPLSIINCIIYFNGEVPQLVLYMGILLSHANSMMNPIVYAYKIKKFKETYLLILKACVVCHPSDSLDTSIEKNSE

mA1AR = target: T6, mA1AR (Mus musculus, UniProt Q60612); settings: values from Melman et al.; read-out: Affinity (Ki, nM) mA1; cited from earlier work
T6 construct: expressed in transfected cells
T6 sequence (Q60612 1-326): T2 sequence (P25099 1-326) with V151E, D155A, R157I, D316E, L319I, E325D

mA2AAR = target: T7, mA2AAR (Mus musculus, UniProt Q60613); settings: values from Melman et al.; read-out: Affinity (Ki, nM) mA2A; cited from earlier work
T7 construct: expressed in transfected cells
T7 sequence (Q60613 whole entry): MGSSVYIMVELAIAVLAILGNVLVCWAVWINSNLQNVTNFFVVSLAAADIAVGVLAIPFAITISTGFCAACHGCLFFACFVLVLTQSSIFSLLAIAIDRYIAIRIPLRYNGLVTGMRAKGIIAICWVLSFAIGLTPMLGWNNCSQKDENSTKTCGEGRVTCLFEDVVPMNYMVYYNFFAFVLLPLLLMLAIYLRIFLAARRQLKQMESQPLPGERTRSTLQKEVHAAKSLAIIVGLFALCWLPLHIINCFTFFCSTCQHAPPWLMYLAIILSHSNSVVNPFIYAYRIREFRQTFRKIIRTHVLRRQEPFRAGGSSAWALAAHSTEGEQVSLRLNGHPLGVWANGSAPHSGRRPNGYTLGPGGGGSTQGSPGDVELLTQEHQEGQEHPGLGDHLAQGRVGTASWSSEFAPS

mA3AR = target: T8, mA3AR (Mus musculus, UniProt Q61618); settings: values from Melman et al.; read-out: Affinity (Ki, nM) mA3; cited from earlier work
T8 construct: expressed in transfected cells
T8 sequence (Q61618 1-319): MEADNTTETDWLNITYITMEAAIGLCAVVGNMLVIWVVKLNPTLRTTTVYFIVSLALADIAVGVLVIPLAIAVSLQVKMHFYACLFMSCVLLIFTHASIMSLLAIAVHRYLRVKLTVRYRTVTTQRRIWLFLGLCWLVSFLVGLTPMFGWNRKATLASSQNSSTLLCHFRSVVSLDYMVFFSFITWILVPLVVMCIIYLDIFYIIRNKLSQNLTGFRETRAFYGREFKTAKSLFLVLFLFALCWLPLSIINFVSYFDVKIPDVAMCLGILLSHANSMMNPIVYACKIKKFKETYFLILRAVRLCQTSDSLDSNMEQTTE

[3] = target: T9, human A2A adenosine receptor (Homo sapiens, UniProt P29274); test: Radioligand binding, human A2A AR (Table 1); settings: read-out: A2A Ki; species H (human)
T9 sequence (P29274 whole entry): as the sequence (P29274 whole entry) above

[4] = target: T10, human A1 adenosine receptor (Homo sapiens, UniProt P30542); test: Radioligand binding, human A1 AR, CHO membranes (Table 1); settings: read-out: A1 Ki; species H (human)
T10 sequence (P30542 1-326): T3 sequence (P30542 1-326)

[5] = target: T11, mouse A1 adenosine receptor (Mus musculus, UniProt Q60612); test: Competition radioligand binding, mouse A1 AR, HEK293 membranes (Table 1); settings: read-out: A1 Ki; species M (mouse); [125I]I-AB-MECA; mean ± SEM
T11 sequence (Q60612 1-326): T2 sequence (P25099 1-326) with V151E, D155A, R157I, D316E, L319I, E325D

[6] = target: T12, mouse A3 adenosine receptor (Mus musculus, UniProt Q61618); test: Competition radioligand binding, mouse A3 AR, HEK293 membranes (Table 1); settings: for Ki: read-out: A3 Ki, species M (mouse), [125I]I-AB-MECA
T12 sequence (Q61618 1-319): T8 sequence (Q61618 1-319)

[7] = target: mouse A2A adenosine receptor (Mus musculus, UniProt Q60613); test: Competition radioligand binding, mouse A2A AR, HEK293 membranes (Table 1); settings: read-out: A2A Ki; species M (mouse); [3H]CGS21680
mouse A2A adenosine receptor, sequence (Q60613 whole entry): as the sequence (Q60613 whole entry) above

human A2A receptors = target: T13, human A2A receptors (Homo sapiens, UniProt P29274); test: Binding at human A2A receptor, HEK-293 membranes (Example 4); settings: read-out: Affinity (Ki nM) A2A
T13 construct: expressed in transfected cells
T13 sequence (P29274 whole entry): as the sequence (P29274 whole entry) above
From the text: (§1) The reaction was terminated by filtration with GF/B filters.

human A1 receptors = target: T14, human A1 receptors (Homo sapiens, UniProt P30542); test: Binding at human A1 receptor, CHO membranes (Example 4); settings: read-out: Affinity (Ki nM) A1
T14 construct: expressed in transfected cells; host or cells: CHO
T14 sequence (P30542 1-326): T3 sequence (P30542 1-326)
From the text: as §1

human A3 receptor = target: T15, human A3 receptor (Homo sapiens, UniProt P0DMS8); test: Binding assay at the human A3 receptor, CHO membranes (Example 4)
T15 sequence (P0DMS8 1-318): T5 sequence (P0DMS8 1-318)
Method: Cell culture and membrane preparation: CHO (Chinese hamster ovary) cells expressing the recombinant human A3AR were cultured in DMEM (Dulbecco's modified Eagle's medium) supplemented with 10% fetal bovine serum, 100 units/mL penicillin, 100 μg/mL streptomycin, 2 μmol/mL glutamine and 800 μg/mL geneticin. The CHO cells expressing rat A3ARs were cultured in DMEM and F12 (1:1). Cells were harvested by trypsinization. After homogenization and suspension, cell membranes were centrifuged at 500 g for 10 min, and the pellet was re-suspended in 50 mM Tris.HCl buffer (pH 8.0) containing 10 mM MgCl2, 1 mM EDTA and 0.1 mg/mL CHAPS (3[(3-cholamidopropyl)dimethylammonio]-propanesulfonic acid). […] The protein concentration was measured using the Bradford assay.
The mixtures were incubated at 37° C. for 60 min. Binding reactions were terminated by filtration through Whatman GF/B filters under reduced pressure using a MT-24 cell harvester (Brandell, Gaithersburgh, Md., USA). Filters were washed three times with 9 mL ice-cold buffer. Radioactivity was determined in a Beckman 5500B γ-counter.

rat A3 AR [8] = target: T1, rat A3 AR; settings: species R (rat); data from Tchilibon et al. / Lee et al.; cited from earlier work
[9] = target: T9, human A2A adenosine receptor; parameters: expressed in transfected cells; settings: species H (human); data from Tchilibon et al. or Kim et al.; cited from earlier work
[10] = target: T10, human A1 adenosine receptor; parameters: expressed in transfected cells; host or cells: CHO; settings: species H (human); data from Tchilibon et al. or Kim et al.; cited from earlier work
[11] = target: T16, human A3 adenosine receptor (Homo sapiens, UniProt P0DMS8); parameters: expressed in transfected cells; host or cells: CHO; settings: species H (human); data from Tchilibon et al. or Kim et al.; cited from earlier work
T16 sequence (P0DMS8 1-318): T5 sequence (P0DMS8 1-318)

human A3AR = target: T17, human A3AR (Homo sapiens, UniProt P0DMS8); test: Inhibition of forskolin-stimulated cyclic AMP production in AR transfected CHO cells (Table 1); type: cell-based; settings: at 10 μM, in comparison to maximal effect of full agonist 5′-N-ethylcarboxamidoadenosine at 100%
T17 construct: expressed in transfected cells; host or cells: CHO
T17 sequence (P0DMS8 1-318): T5 sequence (P0DMS8 1-318)

hA3AR [12] = target: T5, hA3AR; settings: values from the literature (footnotes c, d); read-out: Affinity (Ki, nM) hA3; cited from earlier work
[13] = target: T16, human A3 adenosine receptor; test: [125I]I-AB-MECA binding, human A3 AR, CHO membranes (Table 1)

Row | Structure (SMILES) | Ki (hA1AR) | Ki (hA2AAR) | % Efficacy hA3 (hA3AR [2]) | Ki [3] | Ki [4] | Ki [5] | Ki [6] | Ki [7] | Ki (human A2A receptors) | Ki (human A1 receptors) | other results
1 | CNC(=O)[C@@]12C[C@@H]1[C@@H](n1cnc3c(NCc4cccc(I)c4)nc(Cl)nc31)[C@H](O)[C@@H]2O [Compound 15] | 136 ± 22 nM | 784 ± 97 nM | 100% | 0.784 ± 0.097 µM | 0.136 ± 0.022 µM | 0.00732 ± 0.0015 µM | 0.0008 ± 0.00014 µM | 5.35 ± 0.86 µM |  |  | Ki (rat A3 AR [1]): 0.0011 µM; Ki (rat A1 AR): 0.0839 µM; Ki (rat A2A AR): 1.66 µM; Ki (mA1AR): 7.32 ± 1.5 nM; Ki (mA2AAR): 5350 nM; Ki (mA3AR): 0.8 ± 0.14 nM
2 | OC1C(O)C(n2cnc3c(NCc4cccc(Br)c4)nc(Cl)nc32)C2CC12 (stereo not drawn) [Compound 109b, (1′R,2′R,3′S, 4′R,5′S)-4′42-Chloro-6-(3-bromobenzylamino)purine-1-2′,3′-O-dihydroxybicyclo-[3.1.0]hexane] |  |  |  |  |  |  |  |  | 1600 nM |  | 
3 | OC1C(O)C(n2cnc3c(NC4CC4c4ccccc4)nc(Cl)nc32)C2CC12 (stereo not drawn) [Compound 113b, (1′R,2′R,3′S, 4′R,5′S)-4′-[2-Chloro-6-(trans-2-phenylcyclopropylamino)purine]-2′,3′-O-dihydroxybicyclo-[3.1.0]hexane] |  |  |  |  |  |  |  |  | 2010 nM | 1790 nM | binding to the A3AR (in words) (human A3 receptor): nanomolar binding affinity
4 | CNC(=O)[C@@]12C[C@@H]1[C@@H](n1cnc3c(NCc4cc(OC)ccc4OC)nc(Cl)nc31)[C@H](O)[C@@H]2O [Compound 17] |  |  |  |  |  | 0.029 ± 0.0033 µM | 0.00172 ± 4e-05 µM | 44.7 ± 5.7 µM |  |  | Ki (rat A3 AR [8]): 0.00087 µM; Ki [9]: 10 µM; Ki [10]: 1.6 µM; Ki [11]: 0.0014 µM; Selectivity A1/A3 ([6]; mouse): 17
5 | CNC(=O)[C@@]12C[C@@H]1[C@@H](n1cnc3c(NCc4cccc(I)c4)ncnc31)[C@H](O)[C@@H]2O [Compound 31] | 700 ± 270 nM | 6200 ± 100 nM | 100% | 6.2 ± 0.1 µM | 0.7 ± 0.27 µM |  |  |  |  |  | % Efficacy at the human A3 AR (human A3AR): 100^j %; Ki (hA3AR [12]): 2.4 ± 0.5 nM; Selectivity A1/A3 ([13]; human): up to 1900; Ki ([13]; read-out: A3 Ki, species H (human)): 0.0024 ± 0.0005 µM
6 | COc1ccc(OC)c(CNc2nc(Cl)nc3c2ncn3C2C(O)C(O)C3CC32)c1 (stereo not drawn) [Compound 111b, (1′R,2′R,3′S, 4′R,5′S)-4′-[2-Chloro-6-(2,5-dimethoxybenzylamino)purine]-2′,3′-O-dihydroxybicyclo-[3.1.0]hexane] |  |  |  |  |  |  |  |  |  | 3000 nM | 
